Assays:
[1] = test system: HLE-B3; conditions: HLE-B3 cell line; cited from earlier work
[2] = test system: excised rat lenses; conditions: concentrations typically micromolar; cited from earlier work
[3] = test system: FHL 124 cells; experiment: Patch contraction assay (TGF-β-induced matrix contraction); format: cell-based, human
Method: FIG. 2. […] FHL 124 cells were seeded to form patches, maintained in serum-free medium before exposure to experimental conditions. All cultures were maintained for 72 hours in 5% EMEM (Eagle's minimal essential medium) alone or 5% FCS (fetal calf serum) EMEM supplemented with 10 ng/mL TGF-β1 or -β2±the MMP inhibitor GM6001 (25 μM). (A) Visual representations of patch assay cultures in different experimental conditions. (B) Quantified data showing differences in patch area. (C) Data showing differences in cell populations between patch areas (Coomassie blue dye was extracted and quantified from the same experiment as presented in (B)). In FIGS. 2(B) and (C) each left hand bar of the bar pairs reports the result in the absence of GM6001 (indicated as “−GM6001” in the key) and the right hand bar reports the result in the presence of GM6001 (indicated as “+GM6001” in the key). Data represent mean±SEM. * Indicates a significant difference from unstimulated control cells. # Indicates a significant difference between siMMP2 treated cells and SCR siRNA counterparts (p≦0.05, ANOVA with the Tukey test).
FIG. 6. MMP2 is important for TGF-β-induced matrix contraction. FHL 124 cells were seeded to form patches, then transfected with siRNA targeted to MMP2 or SCR negative control and maintained in Optimem™ (Invitrogen Corporation; Optimem is a modified EMEM, buffered with HEPES and sodium bicarbonate and supplemented with hypoxanthine, thymidine, sodium pyruvate, L-glutamine or Glutamax, trace elements and growth factor; the protein level is minimal (15 μg/mL) with insulin and transferrin being the only protein supplements; phenol red is included as a pH indicator). Patches were measured after 72 hours of culture with 10 ng/mL TGF-β1 or […]. (A) Visual representations of patch assay cultures in different experimental conditions. (B) Quantified data showing differences in patch area. (C) Data showing differences in cell populations between patch areas (Coomassie blue dye was extracted and quantified from the same experiment as presented in (B)). In FIGS. 6(B) and (C) each left hand bar of the bar pairs reports the result with Scramble siRNA (indicated as “Scramble SiRNA” in the key) and the right hand bar reports the result in the presence of MMP2 specific siRNA (indicated as “MMP2 SiRNA” in the key). The data in (B) and (C) represent the mean±SEM (n≦4). *Indicates a significant difference from unstimulated control cells. # Indicates a significant difference between siMMP2 treated cells and SCR siRNA counterparts (p≦0.05, ANOVA with the Tukey test).
FIG. 7. MMP2 inhibition using neutralising antibody ([…]) prevents TGF-β2 (10 ng/ml)-induced matrix contraction assessed by patch assay. In FIG. 7(B) each left hand bar of the bar pairs reports the result in the absence of the antibody (indicated as “−4 μg/ml Anti MMP2” in the key) and the right hand bar reports the result in the presence of the antibody (indicated as “+4 μg/ml Anti MMP2” in the key). Data expressed as Mean±SEM (n=3).
FHL 124 cells were seeded at four sites on a tissue culture dish at 5000 cells in 25 μl and maintained in EMEM supplemented with 5% FCS until confluent regions spanning about 5 mm developed (Wormstone et al, Exp. Eye Res. (2004), 78, pages 705-14). The medium was then replaced with non-supplemented EMEM, and the cells were cultured for a further 24 hours, followed by the removal of medium from four patch culture dishes fixed for 30 minutes with 4% formaldehyde at room temperature, followed by washing in PBS. The patches were used as a t=0 reference control.
All remaining cell cultures were exposed to experimental conditions for up to 3 days. Experiments were terminated after the appearance of cell-free regions (holes) within the central region of the patch, by fixation for 30 minutes with 4% formaldehyde at room temperature. […]

[4] = test system: posterior capsule / capsular bag; conditions: in the absence of TGF-β; cited from earlier work
[5] = 25 μM GM6001 in presence of 10 ng/ml TGF-β1 or TGF-β2, 72 hours

SMILES	TGF-β1-induced morphological change in the cells [1]	occurrence of TGF-β-induced anterior subcapsular cataracts (ASCs) [2]	effect on patch area relative to control ([3]; 25 μM GM6001 alone (no TGF-β), 72 hours, vs control 5% FCS EMEM group)	formation of cell free zones [3, 5]	patch area vs un-stimulated control group [3, 5]	TGF-β-induced matrix contraction ([3]; GM6001 25 μM, 10 ng/mL TGF-β1 or -β2, 72 hours (FIG. 2 legend))	total protein content by Coomassie blue dye extraction (cell population) ([3]; patches ± 10 ng/ml TGF-β1 or -β2 ± GM6001, 72 hours)	capsular bag contraction [4]	cell migration onto the posterior capsule surface [4]
O=C(O)[C@@H](Cc1ccccc1)NS(=O)(=O)c1ccc(-c2ccccc2)cc1 [(2R)-2-[(4-biphenylylsulphonyl)amino]-3-phenylpropionic acid]	blocked	–	–	–	–	–	–	–	–
O=C(NO)[C@@H](Cc1ccccc1)NS(=O)(=O)c1ccc(-c2ccccc2)cc1 [(2R)-[(4-biphenylylsulfonyl)amino]-N-hydroxyl-3-phenylpropionamide]	–	prevents the occurrence	–	–	–	–	–	–	–
CNC(=O)[C@H](Cc1c[nH]c2ccccc12)NC(=O)[C@@H](CC(=O)NO)CC(C)C [GM6001, N-[(2R)-2-(hydroxamidocarbonylmethyl)-4-methylpentanoyl]-L-trypto-phan methylamide]	–	prevents the occurrence	no significant effect on patch area	suppressed the formation of cell free zones	did not significantly differ from the un-stimulated control group	prevents TGF-β-induced matrix contraction	no significant changes	suppress consequent capsular bag contraction	suppress cell migration onto the posterior capsule surface

— US20110236395A1, “TREATMENT OF FIBROTIC EYE DISORDERS USING AN MMP2 INHIBITOR” (UNIVERSITY OF EAST ANGLIA, priority 2008, published 2011)
